Test results: patent publication US9555038B2, “Heterocycle-substituted tetracyclic compounds and methods of use thereof for the treatment of viral diseases” (Merck Sharp & Dohme Corp., priority 2013, dated 2017)
Read-outs that look alike come from different tables or passages of the source.

Key:
[1] = system: HCV replicon 1A; test: Cell-based HCV Replicon Assay A, replicon 1A
Procedure, shortened: (§1)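 Replicon cells were seeded at 2000 cells/well with test compound in 10 serial dilutions, starting at 333.3 nM to 1.667 nM, in 0.5% DMSO and 5% FBS. On day 3, cells were washed and lysed, and replicon RNA was quantified by multiplex TaqMan RT-PCR normalised to cyclophilin.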

[2] = system: HCV replicon 1AY93H; test: Cell-based HCV Replicon Assay A, replicon 1AY93H
Procedure, shortened: as §1

[3] = system: HCV replicon 2B; test: Cell-based HCV Replicon Assay A, replicon 2B
Procedure, shortened: as §1

[4] = system: HCV replicon 1AQ30D; test: Cell-based HCV Replicon Assay B, replicon 1AQ30D
Procedure, shortened: (§2)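 Replicon cells seeded in 5% FBS; compounds added 24 h later, then 3 days' incubation. Replicon RNA quantified by real-time RT-PCR with genotype-specific primers/probes (NS5B amplicon for 1b). EC50 = concentration raising CT by 1 over projected baseline.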

[5] = system: HCV replicon 1B; test: Cell-based HCV Replicon Assay B, replicon 1B
Procedure, shortened: as §2

[6] = Hepatitis C virus, read-out: 1A Y93H IC50 (nM), replicon 1AY93H
[7] = Hepatitis C virus, read-out: 2B IC50 (nM), replicon 2B
[8] = Hepatitis C virus, read-out: 1A Q30D IC50 (nM), replicon 1AQ30D
[9] = read-out: 1A Y93H IC50, replicon 1AY93H
[10] = read-out: 1A Q30D IC50, replicon 1AQ30D

SMILES	IC50 ([1]; Hepatitis C virus)	IC50 [2, 6]	IC50 [3, 7]	IC50 [4, 8]	IC50 ([5]; Hepatitis C virus)	IC50 [1]	IC50 [2, 9]	IC50 ([3]; read-out: 2B IC50, replicon 2B)	IC50 [5]	IC50 [4, 10]
COC(=O)NC(C(=O)N1CCC[C@H]1c1ncc(-c2ccc3c(c2)cc2n3C(c3cnc(C4CC4)s3)Oc3cc(-c4cnc([C@@H]5CCCN5C(=O)[C@@H](NC(=O)OC)C(C)C)[nH]4)cc(C)c3-2)[nH]1)C1CCOC(C)(C)C1 (single isomer, unassigned) [Compound 214]	2.7 pM	0.02 nM	0.004 nM	0.44 nM	8 pM	–	–	–	–	–
COC(=O)NC(C(=O)N1[C@@H]2C[C@@H]2C[C@H]1c1ncc(-c2ccc3c(c2)cc2n3C(c3cnc(C4CC4)s3)Oc3cc(-c4cnc([C@@H]5CCCN5C(=O)[C@@H](NC(=O)OC)C(C)C)[nH]4)cc(C)c3-2)[nH]1)C1C[C@@H](C)O[C@@H](C)C1 (single isomer, unassigned) [Compound 217]	–	–	–	0.241 nM	–	3.2 pM	0.0085 nM	0.011 nM	5 pM	–
COC(=O)NC(C(=O)N1CCC[C@H]1c1ncc(-c2ccc3c(c2)cc2n3C(c3cnc(C4CCC4)s3)Oc3cc(-c4cnc([C@@H]5CCCN5C(=O)[C@@H](NC(=O)OC)C(C)C)[nH]4)cc(C)c3-2)[nH]1)C1C[C@@H](C)O[C@@H](C)C1 (single isomer, unassigned) [Compound 219]	–	–	–	0.096 nM	4 pM	2.7 pM	0.013 nM	0.003 nM	–	–
COC(=O)NC(C(=O)N1CCC[C@H]1c1ncc(-c2ccc3c(c2)cc2n3C(c3cnc(C4CCC4)s3)Oc3cc(-c4cnc([C@@H]5CCCN5C(=O)[C@@H](NC(=O)OC)C(C)C)[nH]4)cc(C)c3-2)[nH]1)C1CCOC(C)(C)C1 (single isomer, unassigned) [Compound 221]	7 pM	0.06 nM	0.006 nM	0.39 nM	8 pM	–	–	–	–	–
COC(=O)NC(C(=O)N1[C@@H]2C[C@@H]2C[C@H]1c1ncc(-c2ccc3c(c2)cc2n3C(c3cnc(C4CCC4)s3)Oc3cc(-c4cnc([C@@H]5CCCN5C(=O)[C@@H](NC(=O)OC)C(C)C)[nH]4)cc(C)c3-2)[nH]1)C1C[C@@H](C)O[C@@H](C)C1 (single isomer, unassigned) [Compound 222]	2.7 pM	0.0059 nM	0.007 nM	0.044 nM	6 pM	–	–	–	–	–
COC(=O)NC(C(=O)N1[C@@H]2C[C@@H]2C[C@H]1c1ncc(-c2ccc3c(c2)cc2n3C(c3cnc(C4CCC4)s3)Oc3cc(-c4cnc([C@@H]5CCCN5C(=O)[C@@H](NC(=O)OC)C(C)C)[nH]4)cc(C)c3-2)[nH]1)C1CCOC(C)(C)C1 (single isomer, unassigned) [Compound 223]	6 pM	0.3 nM	0.115 nM	2.98 nM	8 pM	–	–	–	–	–
COC(=O)N[C@H](C(=O)N1CCC[C@H]1c1ncc(-c2cc(F)c3c(c2)OC(c2cnc(C4CC4)s2)n2c-3cc3cc(-c4cnc([C@@H]5C[C@H]6C[C@H]6N5C(=O)[C@@H](NC(=O)OC)C(C)C)[nH]4)ccc32)[nH]1)C(C)C (single isomer, unassigned) [Compound 300]	–	–	–	–	3 pM	3 pM	0.0041 nM	0.011 nM	–	0.066 nM
COC(=O)N[C@H](C(=O)N1CCC[C@H]1c1ncc(-c2cc(F)c3c(c2)OC(c2cnc(C4CC4)s2)n2c-3cc3cc(-c4cnc([C@@H]5C[C@H]6C[C@H]6N5C(=O)[C@@H](NC(=O)OC)C(C)C)[nH]4)ccc32)[nH]1)C(C)C (single isomer, unassigned) [Compound 301]	–	–	–	–	–	1.4 pM	0.22 nM	0.335 nM	4 pM	2.12 nM
COC(=O)N[C@H](C(=O)N1CCC[C@H]1c1ncc(-c2cc(F)c3c(c2)OC(c2cnc(C(C)(C)C)s2)n2c-3cc3cc(-c4cnc([C@@H]5CCCN5C(=O)[C@@H](NC(=O)OC)C(C)C)[nH]4)ccc32)[nH]1)C(C)C (single isomer, unassigned) [Compound 302]	2.9 pM	–	–	0.168 nM	–	–	0.0071 nM	0.077 nM	1 pM	–
COC(=O)NC(C(=O)N1CCC[C@H]1c1ncc(-c2ccc3c(c2)cc2n3C(c3cnc(C4CC4)s3)Oc3cc(-c4cnc([C@@H]5CCCN5C(=O)[C@@H](NC(=O)OC)C(C)C)[nH]4)cc(F)c3-2)[nH]1)C1C[C@@H](C)O[C@H](C)C1 (single isomer, unassigned) [Compound 304]	2 pM	–	–	–	3 pM	–	0.123 nM	0.048 nM	–	0.954 nM
